This passage reports IC50 results from patent publication US20230118795A1, “ARYL OR HETEROARYL PYRIDONE OR PYRIMIDINE DERIVATIVE, PREPARATION METHOD AND USE THEREOF” (SUZHOU ZELGEN BIOPHARMACEUTICALS CO., LTD., priority 2020, published 2023).

For one test, the system named is NCI-H358 (KRAS^G12C mutation) cell. The experiment in a line: Cell assay of antiproliferative activity against NCI-H358 cell (Celltiter-Glo, 5 days). It is filed as cell-based. The note with it: 5 days incubation. As to the method:
Cell Assay of Antiproliferative Activity of Compounds Against NCI-H358 (KRAS^G12C Mutation) Cell.
40 μL phosphate buffer was added to the outer wells of the 384 microplate, and 40 μL cell suspension to be tested was added to the other wells. Then the microplate was incubated in a carbon dioxide incubator overnight.
The compounds to be tested were gradiently diluted, each compound was performed 10 concentration gradients (diluted from 50 μM to 0.003 μM) and added 100 nL to the corresponding wells in the microplate. After addition, 40 μl of phosphate buffer was added to each well in rows A and P and columns 1 and 24, and then the microplate was incubated in a carbon dioxide incubator for 5 days.
20 μL of Promega Celltiter-Glo reagent was added to each well of the microplate, and then the luminescence signal was stabilized by oscillating at room temperature for 10 min. Then PekinElmer Envision multi-label analyzer was used to read.
Finally, GraphPad Prism software was used to calculate the IC50 value of the compound and the fitting curve was drawn.
Anti-proliferative activity of the compounds of the present invention against NCI-H358 (KRAS^G12C mutation) cell was shown in Table 1.
(In ATP-based viability assays light output follows the ATP content of the culture.)
As usually defined, the IC50 is the concentration that gives 50% inhibition. As to `C=CC(=O)N1CCN(c2nc(=O)n(-c3c(CC)cccc3S(C)(=O)=O)c3nc(-c4c(O)cccc4F)c(F)cc23)[C@@H](C)C1` (single isomer, unassigned) [Example 5B], the midpoint of inhibition, the IC50, lay at 0.011 µM.
The compound `C=CC(=O)N1CCN(c2nc(=O)n(-c3c(C4CC4)cccc3S(C)(=O)=O)c3nc(-c4c(O)cccc4F)c(F)cc23)[C@@H](C)C1` (single isomer, unassigned) [Example 6A] returned an IC50 of 0.2 µM.
In turn, `C=CC(=O)N1CCN(c2nc(=O)n(-c3c(C4CC4)cccc3S(C)(=O)=O)c3nc(-c4c(O)cccc4F)c(F)cc23)[C@@H](C)C1` (single isomer, unassigned) [Example 6B] showed an IC50 of 0.015 µM.
Same read-out and setting: for `C=CC(=O)N1CCN(c2nc(=O)n(-c3c(C(C)C)cccc3S(C)(=O)=O)c3nc(-c4c(O)cccc4F)c(F)cc23)[C@@H](C)C1` (single isomer, unassigned) [Example 10A] the value was 0.28 µM; for `C=CC(=O)N1CCN(c2nc(=O)n(-c3c(C(C)C)ccnc3S(C)(=O)=O)c3nc(-c4c(O)cccc4F)c(F)cc23)[C@@H](C)C1` (single isomer, unassigned) [Example 16A], 0.72 µM.
Still for that read-out and setting: the result for `C=CC(=O)N1CCN(c2nc(=O)n(-c3c(S(C)(=O)=O)ccnc3C(C)C)c3nc(-c4c(O)cccc4F)c(F)cc23)[C@@H](C)C1` (single isomer, unassigned) [Example 18B] reads 0.46 µM; that for `C=CC(=O)N1CCN(c2nc(=O)n(-c3c(C(C)C)ccnc3S(C)(=O)=O)c3nc(-c4ccccc4Cl)c(F)cc23)[C@@H](C)C1` (single isomer, unassigned) [Example 20A], 1.5 µM.
The same measure, in the same setting: the result for `C=CC(=O)N1CCN(c2nc(=O)n(-c3c(C(C)C)ccnc3S(C)(=O)=O)c3nc(-c4ccccc4Cl)c(F)cc23)[C@@H](C)C1` (single isomer, unassigned) [Example 20B] reads 0.013 µM; that for `C=CC(=O)N1CCN(c2nc(=O)n(-c3c(C4CCC4)cccc3S(C)(=O)=O)c3nc(-c4c(O)cccc4F)c(F)cc23)[C@@H](C)C1` (single isomer, unassigned) [Example 25A], 0.35 µM.
`C=CC(=O)N1CCN(c2nc(=O)n(-c3c(C4CCC4)cccc3S(C)(=O)=O)c3nc(-c4c(O)cccc4F)c(F)cc23)[C@@H](C)C1` (single isomer, unassigned) [Example 25B] returned an IC50 of 0.006 µM.
Same read-out and setting: for `C=CC(=O)N1CCN(c2nc(=O)n(-c3c(C(C)C)cccc3S(C)(=O)=O)c3nc(-c4ccccc4Cl)c(F)cc23)[C@@H](C)C1` (single isomer, unassigned) [Example 30A] the value was 0.74 µM; for `C=CC(=O)N1CCN(c2nc(=O)n(-c3c(C(C)C)cccc3S(C)(=O)=O)c3nc(-c4ccccc4Cl)c(F)cc23)[C@@H](C)C1` (single isomer, unassigned) [Example 30B], 0.011 µM.
Still for that read-out and setting: the result for `C=CC(=O)N1CCN(c2nc(=O)n(-c3c(C(C)C)cccc3S(C)(=O)=O)c3nc(-c4c(F)cccc4OC(C)=O)c(F)cc23)[C@@H](C)C1` (single isomer, unassigned) [Example 31A] reads 0.3 µM; that for `C=CC(=O)N1CCN(c2nc(=O)n(-c3c(C(C)C)cccc3S(C)(=O)=O)c3nc(-c4c(F)cccc4OC(C)=O)c(F)cc23)[C@@H](C)C1` (single isomer, unassigned) [Example 31B], 0.006 µM.
Same read-out and setting: the result for `C=CC(=O)N1CCN(c2nc(=O)n(-c3c(C)cccc3S(C)(=O)=O)c3nc(-c4c(O)cccc4F)c(F)cc23)[C@@H](C)C1` (single isomer, unassigned) [Example 53B] reads 0.066 µM; that for `C=CC(=O)N1C[C@H](C)N(c2nc(=O)n(-c3c(C4CC4)cccc3S(C)(=O)=O)c3nc(-c4c(O)cccc4F)c(F)cc23)C[C@H]1C` (single isomer, unassigned) [Example 81B], 0.009 µM; that for `C=CC(=O)N1C[C@H](C)N(c2nc(=O)n(-c3c(CC)cccc3S(=O)(=O)C(C)C)c3nc(-c4c(O)cccc4F)c(F)cc23)C[C@H]1C` (single isomer, unassigned) [Example 82B], 0.05 µM.
For the compound `C=CC(=O)N1CCN(c2nc(=O)n(-c3c(CC)cccc3S(=O)(=O)C(C)C)c3nc(-c4c(O)cccc4F)c(F)cc23)[C@@H](C)C1` (single isomer, unassigned) [Example 83B], half-maximal inhibition (IC50) required 0.026 µM.
`C=CC(=O)N1C[C@H](C)N(c2nc(=O)n(-c3c(CC)cccc3S(C)(=O)=O)c3nc(-c4c(O)cccc4F)c(Cl)cc23)C[C@H]1C` (single isomer, unassigned) [Example 84B] had an IC50 of 0.006 µM.
The same measure, in the same setting: the result for `C=CC(=O)N1CCN(c2nc(=O)n(-c3c(C)cccc3S(C)(=O)=O)c3nc(-c4c(O)cccc4F)c(F)cc23)[C@@H](C)C1` (single isomer, unassigned) [Example 87A] reads below 0.03 µM; that for `C=CC(=O)N1CCN(c2nc(=O)n(-c3c(C)cccc3S(C)(=O)=O)c3nc(-c4c(O)cccc4F)c(F)cc23)[C@@H](C)C1` (single isomer, unassigned) [Example 87B], below 0.1 µM; that for `C=CC(=O)N1CCN(c2nc(=O)n(-c3c(CC)cccc3S(C)(=O)=O)c3nc(-c4c(O)cccc4F)c(F)cc23)[C@@H](C)C1` [Example 5, 4-((S)-4-acrylo-2-methylpiperazin-1-yl)-1-(2-ethyl-6-(methylsulfonyl)phenyl)-6-fluoro-7-(2-fluoro-6-hydroxyphenyl) pyridino[2,3-d] pyrimidin-2(1H)-one], 0.028 µM.
Same read-out and setting: the result for `C=CC(=O)N1CCN(c2nc(=O)n(-c3c(CC)cccc3S(C)(=O)=O)c3nc(-c4c(O)cccc4F)c(F)cc23)[C@@H](C)C1` [Example 5A] reads 0.23 µM.

The same test, now with this note: Homo sapiens, NCI-H358, 120 h, 5 days incubation.
As to `C=CC(=O)N1CCN(c2nc(=O)n(-c3c(C)ccnc3S(C)(=O)=O)c3nc(-c4c(O)cccc4F)c(F)cc23)[C@@H](C)C1` [Example 1, 4-((S)-4-acryloyl-2-methylpiperazin-1-yl)-6-fluoro-7-(2-fluoro-6-hydroxyphenyl)-1-(4-methyl-2-(methylsulfonyl)pyridin-3-yl) pyridino [2,3-d] pyrimidin-2 (1H)-one], 0.09 µM corresponded to half-maximal inhibition (IC50).
Same read-out and setting: for `C=CC(=O)N1CCN(c2nc(=O)n(-c3c(S(C)(=O)=O)ccnc3C)c3nc(-c4c(O)cccc4F)c(F)cc23)[C@@H](C)C1` [Example 2, 4-((S)-4-acryloyl-2-methylpiperazin-1-yl)-6-fluoro-7-(2-fluoro-6-hydroxyphenyl)-1-(2-methyl-4-(methylsulfonyl)pyridin-3-yl) pyridino [2,3-d] pyrimidin-2 (1H)-one] the value was 0.54 µM; for `C=CC(=O)N1CCN(c2nc(=O)n(-c3c(C)cccc3S(C)(=O)=O)c3nc(-c4c(O)cccc4F)c(F)cc23)[C@@H](CC#N)C1` [Example 3, 2-((2S)-4-acryloyl-1-(6-fluoro-7-(2-fluoro-6-hydroxyphenyl)-1-(2-methyl-6-(methylsulfonyl)phenyl)-2-oxo-1,2-dihydropyridino[2,3-d]pyrimidin-4-yl)piperazin-2-yl) acetonitrile], 0.87 µM; for `C=CC(=O)N1CCN(c2nc(=O)n(-c3c(C)cccc3S(=O)(=O)C(C)C)c3nc(-c4c(O)cccc4F)c(F)cc23)[C@@H](C)C1` [Example 4, 4-((S)-4-acryloyl-2-methylpiperazin-1-yl)-6-fluoro-7-(2-fluoro-6-hydroxyphenyl)-1-(2-(isopropylsulfonyl)-6-methylphenyl) pyridino[2,3-d] pyrimidin-2(1H)-one], 0.42 µM.
For `C=CC(=O)N1CCN(c2nc(=O)n(-c3c(C4CC4)cccc3S(C)(=O)=O)c3nc(-c4c(O)cccc4F)c(F)cc23)[C@@H](C)C1` [Example 6, 4-((S)-4-acryloyl-2-methylpiperazin-1-yl)-1-(2-cyclopropyl-6-(methylsulfonyl)phenyl)-6-fluoro-7-(2-fluoro-6-hydroxyphenyl) pyridino [2,3-d] pyrimidin-2(1H)-one], the IC50 turned out to be 0.028 µM.
On the same count and under the same terms, for `C=CC(=O)N1CCN(c2nc(=O)n(-c3c(C)cccc3S(=O)(=O)C3CC3)c3nc(-c4c(O)cccc4F)c(F)cc23)[C@@H](C)C1` [Example 7, 4-((S)-4-acryloyl-2-methylpiperazin-1-yl)-1-(2-(cyclopropylsulfonyl)-6-methylphenyl)-6-fluoro-7-(2-fluoro-6-hydroxyphenyl) pyridino [2,3-d] pyrimidin-2(1H)-one] the value was 0.24 µM; for `C=CC(=O)N1CCN(c2nc(=O)n(-c3c(Cl)cccc3S(C)(=O)=O)c3nc(-c4c(O)cccc4F)c(F)cc23)[C@@H](C)C1` [Example 8, 4-((S)-4-acryloyl-2-methylpiperazin-1-yl)-1-(2-chloro-6-(methylsulfonyl)phenyl)-6-fluoro-7-(2-fluoro-6-hydroxyphenyl) pyridino [2,3-d] pyrimidin-2 (1H)-one], 0.17 µM; for `C=CC(=O)N1CCN(c2nc(=O)n(-c3c(C)cccc3S(C)(=O)=O)c3nc(-c4c(F)cccc4C(F)F)c(F)cc23)[C@@H](C)C1` [Example 9, 4-((S)-4-acryloyl-2-methylpiperazin-1-yl)-7-(2-(difluoromethyl)-6-fluorophenyl)-6-fluoro-1-(2-methyl-6-(methylsulfonyl)phenyl) pyridino [2,3-d] pyrimidin-2 (1H)-one], 0.23 µM.
Same read-out and setting: the result for `C=CC(=O)N1CCN(c2nc(=O)n(-c3c(C(C)C)cccc3S(C)(=O)=O)c3nc(-c4c(O)cccc4F)c(F)cc23)[C@@H](C)C1` [Example 10, 4-((S)-4-acryloyl-2-methylpiperazin-1-yl)-6-fluoro-7-(2-fluoro-6-hydroxyphenyl)-1-(2-isopropyl-6-(methylsulfonyl)phenyl) pyridino[2,3-d] pyrimidin-2(1H)-one] reads 0.01 µM.
